# From US20240299358A1, “COMPOSITIONS AND METHODS FOR DIAGNOSIS AND TREATMENT OF AUTOIMMUNE DISEASES” (DUKE UNIVERSITY, priority 2021, published 2024)
# Test system: eHsp90
# Test: In vivo imaging of eHsp90 expression in T cell transfer mouse model of IBD
# Conditions: 10 nmoles IV
# Procedure: The T cell transfer model of IBD was utilized to evaluate the imaging potential of HS-131 for other autoimmune diseases. Naïve T cells isolated from female donor mice were transferred into SCID mice via IP injection. 3-5 weeks post transfer mice develop inflammation, an extended colon and epithelial hyperplasia. 24 hours post HS-131 tail vein injection mice were cryopreserved and imaged as previously mentioned. […] Experiments represent one mouse.
# IBD Disease: On study day 0, Balb/C mice were terminated, and spleens obtained for CD4+CD45RBhigh cell isolation. After cells had been sorted and obtained, each animal received an IP injection of at a minimum 4×10^5 cells (200 μl/mouse injections). […]
# CryoViz™ Imaging: Whole mice were imaged at 10.23 μm×10.23 μm in-plane resolution using an Olympus MVX-10 microscope with a 1X objective and 0.63× magnification and 40 μm section thickness, using the Cryo Viz™ (BioInVision, Inc., Cleveland, USA). CryoViz™ is a fully automated, serial sectioning-and-imaging system which provides 3-dimensional, tiled, microscopic anatomical bright field and molecular fluorescence images over large fields-of-view such as a whole mouse. Images were acquired using a dual band FITC/TxRed fluorescence filter (Chroma, Inc., Rockingham, VT), a liquid crystal RGB filter and a low-noise monochrome camera. […]
compound,measurement,setting,value
Cc1nn(-c2ccc(C(N)=O)c(NCCCOCCOCCOCCOCCOCCCNCc3ccc(C(=C\C=C4\N(CCCCS(=O)(=O)[O-])c5ccccc5C4(C)C)/C=C/C4=[N+](CCCCS(=O)(=O)O)c5ccccc5C4(C)C)cc3)c2)c2c1C(=O)CC(C)(C)C2 [HS-131],uptake in joints or paws of IBD mouse,24 hours post injection,no uptake
same,fluorescence from the inflamed bowels of IBD mouse,24 hours post injection (FIG. 7A),extensive fluorescent signaling
